# Molecular target: T1, NLRP3 inflammasome (Homo sapiens, UniProt Q96P20)
# T1 construct: endogenous in cells; host or cells: THP-1 (human monocyte-derived), PMA-differentiated, Nigericin-stimulated
# Assay: In vitro IL-1β production test (PMA-differentiated THP-1 cells, Nigericin stimulation, AlphaLISA)
# Format: cell-based
# Settings: inhibition of IL-1β production; THP-1 cells differentiated with 200 nM PMA; 0.015 mM Nigericin; 2 hours
# Experimental: Human monocyte-derived THP-1 cells were cultured for one day in 10% bovine serum-containing RPMI-1640 medium (Thermo #A10491-01) supplemented with 200 nM phorbol 12-myristate 13-acetate (PMA, Sigma #P8139) to induce differentiation.
# NLRP3 inflammasome was induced by replacing the culture medium with bovine serum-free RPMI-1640 medium supplemented with 0.015 mM Nigericin (Sigma #SML1779) and the test compound of known concentrations.
# After 2 hours, the culture medium supernatant was collected and the IL-1β protein concentration was measured using the AlphaLISA (registered trademark) assay (PerkinElmer #AL220C).
# The IL-1β concentration without the addition of the test compound and with Nigericin stimulation was set as 0% inhibitory activity, and the IL-1β concentration without Nigericin stimulation was set as 100% inhibitory activity, and the inhibition rate (% inhibition) of the test compound at each added concentration was calculated.
# The % inhibition value was subjected to sigmoid fitting using a logistic regression model to calculate the 50% inhibitory concentration (IC50 value).
# T1 sequence (Q96P20 whole entry): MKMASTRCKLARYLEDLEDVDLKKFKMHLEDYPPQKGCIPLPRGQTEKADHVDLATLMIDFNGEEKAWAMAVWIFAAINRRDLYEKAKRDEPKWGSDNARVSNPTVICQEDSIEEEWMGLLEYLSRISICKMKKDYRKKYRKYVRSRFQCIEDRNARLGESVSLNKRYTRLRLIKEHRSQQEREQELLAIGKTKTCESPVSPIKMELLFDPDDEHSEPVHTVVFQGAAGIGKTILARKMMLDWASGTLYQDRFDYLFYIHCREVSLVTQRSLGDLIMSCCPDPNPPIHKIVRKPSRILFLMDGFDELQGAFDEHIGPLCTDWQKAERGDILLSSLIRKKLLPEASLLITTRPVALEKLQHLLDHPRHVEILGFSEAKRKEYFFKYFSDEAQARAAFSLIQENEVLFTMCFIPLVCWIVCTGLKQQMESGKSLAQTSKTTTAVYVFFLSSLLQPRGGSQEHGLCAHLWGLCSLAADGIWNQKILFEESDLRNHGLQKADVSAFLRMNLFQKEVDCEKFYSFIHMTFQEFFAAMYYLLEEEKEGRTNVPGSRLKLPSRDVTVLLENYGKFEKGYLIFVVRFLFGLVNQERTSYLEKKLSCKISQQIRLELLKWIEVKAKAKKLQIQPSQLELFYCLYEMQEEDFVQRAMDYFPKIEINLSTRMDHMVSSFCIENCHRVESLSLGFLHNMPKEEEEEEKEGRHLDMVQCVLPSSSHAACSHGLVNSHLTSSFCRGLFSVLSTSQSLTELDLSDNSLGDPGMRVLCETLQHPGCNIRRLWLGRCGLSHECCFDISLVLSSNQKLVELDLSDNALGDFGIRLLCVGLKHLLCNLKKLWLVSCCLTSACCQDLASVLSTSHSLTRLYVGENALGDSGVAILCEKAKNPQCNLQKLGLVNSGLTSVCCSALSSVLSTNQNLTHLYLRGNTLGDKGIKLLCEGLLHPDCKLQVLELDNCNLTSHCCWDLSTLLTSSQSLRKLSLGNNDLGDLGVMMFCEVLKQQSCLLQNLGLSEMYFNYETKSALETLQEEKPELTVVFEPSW
row,Structure (SMILES),IC50
1,"CCN1[C@H]2CC[C@H](N3CCc4cc(-c5c(C)cc(C(F)(F)F)cc5O)nnc43)[C@@H]1CC2 (racemic) [Example 17, 2-{7-[(1S*, 2S*, 5R*)-8-ethyl-8-azabicyclo[3.2.1]octan-2-yl]-6,7-dihydro-5H-pyrrolo[2,3-c]pyridazin-3-yl}-3-methyl-5-(trifluoromethyl)phenol]",9.47 nM
2,"Cc1cc(C(F)(F)F)cc(O)c1-c1cc2c(nn1)N([C@@H]1CC[C@@H]3CC[C@H]1N3C)CC2 (single isomer, unassigned) [Example 19, 3-methyl-2-{7-[(1R,2R,5S or 1,2S,5R)-8-methyl-8-azabicyclo[3.2.1]octan-2-yl]-6,7-dihydro-5H-pyrrolo[2,3-c]pyridazin-3-yl}-5-(trifluoromethyl)phenol]",9.99 nM
3,"CCN1[C@H]2CC[C@@H]1[C@H](n1cc(C)c3cc(-c4c(C)cc(C(F)(F)F)cc4O)nnc31)CC2 (single isomer, unassigned) [Example 76, 2-{7-[(1R,2R,5S or 1S,2S,5R)-8-ethyl-8-azabicyclo[3.2.1]octan-2-yl]-5-methyl-7H-pyrrolo[2,3-c]pyridazin-3-yl}-3-methyl-5-(trifluoromethyl)phenol]",10.1 nM
4,"Cc1cc(C(F)(F)F)cc(O)c1-c1cc2c(nn1)N([C@@H]1CCCN(C)C1)CC2 [Example 1, 3-methyl-2-{7-[(3R)-1-methylpiperidin-3-yl]-6,7-dihydro-5H-pyrrolo[2,3-c]pyridazin-3-yl}-5-(trifluoromethyl)phenol]",5.27 nM
5,"Cc1cc(C(F)(F)F)cc(O)c1-c1cc2ccn([C@@H]3CCCN(C)C3)c2nn1 [Example 2, 3-methyl-2-{7-[(3R)-1-methylpiperidin-3-yl]-7H-pyrrolo[2,3-c]pyridazin-3-yl}-5-(trifluoromethyl)phenol]",5.26 nM
6,"Cc1cc(C(F)(F)F)cc(O)c1-c1cc2c(Cl)cn([C@H]3C[C@@](C)(O)C3)c2nn1 [Example 6, 2-{5-chloro-7-[(1s,3s)-3-hydroxy-3-methylcyclobutyl]-7H-pyrrolo[2,3-c]pyridazin-3-yl}-3-methyl-5-(trifluoromethyl)phenol]",26 nM
7,"Cc1cc(C(F)(F)F)cc(O)c1-c1cc2ccn([C@H]3C[C@@](C)(CO)C3)c2nn1 [Example 7, 2-{7-[(1s,3s)-3-(hydroxymethyl)-3-methylcyclobutyl]-7H-pyrrolo[2,3-c]pyridazin-3-yl}-3-methyl-5-(trifluoromethyl)phenol]",67.6 nM
8,"Cc1cc(C(F)(F)F)cc(O)c1-c1cc2c(C)cn(C34CCCC(O)(C3)C4)c2nn1 [Example 8, 5-{3-[2-hydroxy-6-methyl-4-(trifluoromethyl)phenyl]-5-methyl-7H-pyrrolo[2,3-c]pyridazin-7-yl}bicyclo[3.1.1]heptan-1-ol]",15.4 nM
9,"Cc1cc(Cl)cc(O)c1-c1cc2c(C)cn([C@H]3C[C@@](C)(O)C3)c2nn1 [Example 9, 5-chloro-2-{7-[(1s,3s)-3-hydroxy-3-methylcyclobutyl]-5-methyl-7H-pyrrolo[2,3-c]pyridazin-3-yl}-3-methylphenol]",13.2 nM
10,"CCN1CCC[C@@H](N2CCc3cc(-c4c(C)cc(C(F)(F)F)cc4O)nnc32)C1 [Example 11, 2-{7-[(3R)-1-ethylpiperidin-3-yl]-6,7-dihydro-5H-pyrrolo[2,3-c]pyridazin-3-yl}-3-methyl-5-(trifluoromethyl)phenol]",7.32 nM
11,"Cc1cc(C(F)(F)F)cc(O)c1-c1cc2c3c(n([C@H]4C[C@@](C)(O)C4)c2nn1)CCC3 [Example 12, 2-{8-[(1s,3s)-3-hydroxy-3-methylcyclobutyl]-5,6,7,8-tetrahydrocyclopenta[4,5]pyrrolo[2,3-c]pyridazin-3-yl}-3-methyl-5-(trifluoromethyl)phenol]",25.9 nM
12,"Cc1cc(OC(F)F)cc(O)c1-c1cc2c(C)cn([C@H]3C[C@@](C)(O)C3)c2nn1 [Example 13, 5-(difluoromethoxy)-2-{7-[(1s,3s)-3-hydroxy-3-methylcyclobutyl]-5-methyl-7H-pyrrolo[2,3-c]pyridazin-3-yl}-3-methylphenol]",37.6 nM
13,"CCCN1CCC[C@@H](N2CCc3cc(-c4c(C)cc(C(F)(F)F)cc4O)nnc32)C1 [Example 14, 3-methyl-2-{7-[(3R)-1-propylpiperidin-3-yl]-6,7-dihydro-5H-pyrrolo[2,3-c]pyridazin-3-yl}-5-(trifluoromethyl)phenol]",7.87 nM

# Next, values leading:
row,IC50,Structure (SMILES)
1,14.4 nM,"Cc1cc(C(F)(F)F)cc(O)c1-c1cc2c(nn1)N([C@@H]1CCCN(C)C1)C(C)C2 (mixture of isomers) [Example 30, 3-methyl-2-{6-methyl-7-[(3R)-1-methylpiperidin-3-yl]-6,7-dihydro-5H-pyrrolo[2,3-c]pyridazin-3-yl}-5-(trifluoromethyl)phenol]"
2,57.2 nM,"Cc1cc(C(F)(F)F)cc(O)c1-c1cc2c(nn1)N([C@@H]1CCCN(C3CCOC3)C1)CC2 (mixture of isomers) [Example 57, 3-methyl-2-{7-[(3R)-1-(tetrahydrofuran-3-yl)piperidin-3-yl]-6,7-dihydro-5H-pyrrolo[2,3-c]pyridazin-3-yl}-5-(trifluoromethyl)phenol]"
3,413 nM,"Cc1cc(C(F)(F)F)cc(O)c1-c1cc2cnn(C3CCCN(C)C3)c2nn1 (racemic) [Example 31, 3-methyl-2-[1-(1-methylpiperidin-3-yl)-1H-pyrazolo[3,4-c]pyridazin-5-yl]-5-(trifluoromethyl)phenol]"
4,74 nM,"Cc1cc(C(F)(F)F)cc(O)c1-c1cc2ccn([C@H]3C[C@@](C)(O)[C@H]3C)c2nn1 (racemic) [Example 42, 2-{7-[(1S*,2S*,3R*)-3-hydroxy-2,3-dimethylcyclobutyl]-7H-pyrrolo[2,3-c]pyridazin-3-yl}-3-methyl-5-(trifluoromethyl)phenol]"
5,65.3 nM,"Cc1cc(C(F)(F)F)cc(O)c1-c1cc2c(nn1)N([C@H]1C[C@@](C)(O)C1)CC2C (mixture of isomers) [Example 85, 2-{7-[(1s,3s)-3-hydroxy-3-methylcyclobutyl]-5-methyl-6,7-dihydro-5H-pyrrolo[2,3-c]pyridazin-3-yl}-3-methyl-5-(trifluoromethyl)phenol]"
6,141 nM,"Cc1cc(C(F)(F)F)cc(O)c1-c1cc2c(nn1)N([C@H]1C[C@@](C)(O)C1)C(C)C2 (mixture of isomers) [Example 86, 2-{7-[(1s,3s)-3-hydroxy-3-methylcyclobutyl]-6-methyl-6,7-dihydro-5H-pyrrolo[2,3-c]pyridazin-3-yl}-3-methyl-5-(trifluoromethyl)phenol]"
7,30.1 nM,"Cc1cc(C(F)(F)F)cc(O)c1-c1ccc(CC2CCCN(C)C2)nn1 (racemic) [Example 93, 3-methyl-2-{6-[(1-methylpiperidin-3-yl)methyl]pyridazin-3-yl}-5-(trifluoromethyl)phenol]"
8,79.6 nM,"Cc1cc(C(F)(F)F)cc(O)c1-c1cc2c(nn1)c(C1CCCN(C)C1)cn2C (racemic) [Example 94, 3-methyl-2-[5-methyl-7-(1-methylpiperidin-3-yl)-5H-pyrrolo[3,2-c]pyridazin-3-yl]-5-(trifluoromethyl)phenol]"
9,19.7 nM,"Cc1cc(C(F)(F)F)cc(O)c1-c1cc2scc(C3CCCN(C)C3)c2nn1 (racemic) [Example 95, 3-methyl-2-[7-(1-methylpiperidin-3-yl)thieno[3,2-c]pyridazin-3-yl]-5-(trifluoromethyl)phenol]"
10,10 nM,"Cc1cc(C(F)(F)F)cc(O)c1-c1cc2c(nn1)N([C@@H]1CCCN(C)C1)C[C@H]2C (single isomer, unassigned) [Example 33, 3-methyl-2-{(5S or 5R)-5-methyl-7-[(3R)-1-methylpiperidin-3-yl]-6,7-dihydro-5H-pyrrolo[2,3-c]pyridazin-3-yl}-5-(trifluoromethyl)phenol]"
11,9.07 nM,"Cc1cc(C(F)(F)F)cc(O)c1-c1cc2c(nn1)N([C@@H]1CCCN(C)C1)C[C@@H]2C (single isomer, unassigned) [Example 34, 3-methyl-2-{(5R or 5S)-5-methyl-7-[(3R)-1-methylpiperidin-3-yl]-6,7-dihydro-5H-pyrrolo[2,3-c]pyridazin-3-yl}-5-(trifluoromethyl)phenol]"
12,23.8 nM,"Cc1cc(C(F)(F)F)cc(O)c1-c1cc2c(nn1)N([C@@H]1CCCN(C)C1)[C@H](C)C2 (single isomer, unassigned) [Example 55, 3-methyl-2-{(6R or 6S)-6-methyl-7-[(3R)-1-methylpiperidin-3-yl]-6,7-dihydro-5H-pyrrolo[2,3-c]pyridazin-3-yl}-5-(trifluoromethyl)phenol]"
13,11.5 nM,"Cc1cc(C(F)(F)F)cc(O)c1-c1cc2cccc([C@@H]3CCCN(C)C3)c2nn1 (single isomer, unassigned) [Example 96, 3-methyl-2-{8-[(3R or 3S)-1-methylpiperidin-3-yl]cinnolin-3-yl}-5-(trifluoromethyl)phenol]"
14,8.33 nM,"CCN1CCC[C@@H](c2cccc3cc(-c4c(C)cc(C(F)(F)F)cc4O)nnc23)C1 (single isomer, unassigned) [Example 97, 2-{8-[(3R or 3S)-1-ethylpiperidin-3-yl]cinnolin-3-yl}-3-methyl-5-(trifluoromethyl)phenol]"
15,13.8 nM,"Cc1cc(C(F)(F)F)cc(O)c1-c1cc2c(nn1)N(c1ncc(F)cn1)[C@@H]1CCO[C@H]21 (single isomer, unassigned) [Example 98, 2-[(4bR,7aR or 4bS,7aS)-8-(5-fluoropyrimidin-2-yl)-6,7,7a,8-tetrahydro-4bH-furo[2′,3′:4,5]pyrrolo[2,3-c]pyridazin-3-yl]-3-methyl-5-(trifluoromethyl)phenol]"
